Data on 6 compounds can be found in US6716635B2, “Method for identifying regulators of protein-advanced glycation end product (protein-AGE) formation” (University of Kentucky Research Foundation, priority 2000, dated 2004).

As usually defined, the % inhibition is the change of the read-out against control, counted positive when it falls.

The test system of test [1] is CF-3 (human dermal fibroblasts). The experiment in a line: protection against α-dicarbonyl toxicity in fibroblasts, cell count. The following applies: for protection against methylglyoxal induced growth inhibition: compound 1 mM added 15 minutes prior to methylglyoxal. It counts as cell-based. Here is the method:
(§1) Continuously cultured cell lines “He-Cat” (human epidermal keratinocytes), and “CF-3” (human dermal fibroblasts), were cultured under standard conditions, divided biweekly into DMEM containing 10% fetal bovine serum, and were kept in a humidified atmosphere containing 5% CO2 at 37° C. In order to divide the cells, 5% trypsin was used on the keratinocytes, and 1% trypsin was used on the fibroblasts.
(§2) Keratinocytes were seeded at 2×10^4 cells/well, and fibroblasts at 4×10^4 cells/well, using 6 well dishes. The cells were allowed to attach to the plate overnight. Either D-penicillamine or aminoguanidine (1 mM each) was added to the plates 15 minutes prior to addition of glyoxal or methylglyoxal. The α-dicarbonyl was left for 72 hours. Varying concentrations of the α-dicarbonyl were used. Cells were counted with a Coulter counter after 72 hours of stress. Cultures were also run where the glyoxal or methylglyoxal was used without the scavenger. L-alanine was used as a negative control as it was not expected to have protective effect.

For test [2], the system named is He-Cat (human epidermal keratinocytes). The experiment in a line: protection against α-dicarbonyl toxicity in keratinocytes, cell count. The class given is cell-based. As to conditions: for protection against methylglyoxal induced growth inhibition: compound 1 mM added 15 minutes prior to methylglyoxal; for protection against growth inhibition by glyoxal: compound 1 mM added 15 minutes prior to glyoxal. Here is the method:
as §1, §2

The subject of test [3] is histone H1 (glycation by ADP-ribose). The experiment in a line: AGE-fluorescence screening of glycation inhibitors, histone H1 + ADP-ribose, 96 well microtiter plates. It counts as biochemical, calf. The following applies: for AGE-fluorescence (day 5): 5 days incubation; for inhibition of AGE-fluorescence, in words: 1 to 10 mM, 5 days; for % inhibition: AGE-fluorescence day 5; for AGE-fluorescence (day 0): value (spread). Here is the method: A 96-well, microtiter plate was used to carry out 48 reactions in duplicate. […] A second pair of wells contains the reactants and the known glycation inhibitor aminoguanidine, and functions as a positive control. Histone H1 is commercially available, and can be prepared following the procedures set out in Johns, et al., Biochem J. 92:55-59(1964), which is incorporated by reference herein.
The reaction system is 50 mM potassium phosphate buffer, at pH 7.4 to which 1.5 mg/ml histone H1 and 1.0 mM ADP-ribose were added. Reaction volume was 300 ul. AGE-fluorescence was measured over time, with incubation at 37° C., at 355 nm (ex) and 405 nm (em). Upon comparison to the control, a test compound was deemed potentially positive if AGE-fluorescence was suppressed.
The histone H1 (1.5 mg/ml) was combined with 1 mM ADP-ribose, in […] KH2PO4 buffer (pH 7.4, 37° C., 0.015% NaN3 added, to inhibit microbial growth). This reaction mixture was added, to 96 well microtiter plates. Test compounds were added to the reaction mixture, at concentrations ranging from 1 to 10 mM, in reaction volumes of 300 ul. Texts were run in duplicate.
Accumulated protein damage was determined by measuring AGE-fluorescence, at wavelengths (λex=370 nm; λ em=440 nm. The fluorescence is suppressed in the presence of compounds with inhibitory activity. Assays were read on a conventional microtiter plate, with a filter setting that approached the above conditions (λ ex: 355 nm, λ […]: 405 nm), which is in the range of the broad excitation/emission maxima of AGE compounds.
The fluorescence was measured at the beginning, and after 5 days of incubation.
The known glycation inhibitor aminoguanidine was used as a control.

For test [4], the system named is histone H1 (cross linking by ADP-ribose). The experiment in a line: glycation induced cross linking of histone H1, 12% SDS-PAGE, silver staining. It counts as biochemical, calf. The following applies: aliquots of 5 day incubation mixtures. Here is the method:
This example describes a secondary screening, to further evaluate compounds which were deemed positive following the assays of examples 1 and 2. Specifically, it will be recalled that each sample was tested in two wells, one of which was tested in example 2, supra. The sample not used was analyzed, via 12% SDS-PAGE, followed by silver staining, in order to visualize protein cross-linking. This serves as an independent measure of glycation caused protein damage. […] To test this, reaction aliquots of the 5 day incubation mixtures, described in Example 1, supra, were assessed on 12% SDS-PAGE. Both untreated histone H1, and the aminoguanidine containing positive control were tested in the same way. All were visualized by silver staining.

Test [5] in a line: aldehyde trapping, reaction with phenylacetaldehyde followed by HPLC. The following applies: same manner as phenylglyoxal. Here is the method:
Reactions were carried out in 10 mM phosphate buffer, pH 7.4, at 37° C., and were followed by HPLC analysis. Phenylglyoxal was used at a concentration of 50 mM, while D-penicillamine and aminoguanidine were used at concentrations of 250 mM, and 500 mM. The phenylglyoxal was used as a UV active, α-oxoaldehyde compound. Over the course of the reaction, aliquots were analyzed via HPLC. For reactions involving D-penicillamine, aliquots were taken at 20 second intervals and kept on dry ice for analysis. Initial reaction rates of phenylglyoxal and test compounds were monitored by following the disappearance of phenylglyoxal over time. D-penicillamine trapped phenylglyoxal more than 60 times faster than aminoguanidine. In order to determine if the α-oxo substitution had any impact on the progress of the aldehyde trapping reaction, the reactivity of D-penicillamine with the aldehyde corresponding to phenylglyoxal, i.e., phenylacetaldehyde, was carried out, in the same manner as is described herein.

The nature of test [6]: α-dicarbonyl trapping, reaction with phenylglyoxal followed by HPLC. On the procedure:
To learn more about the reaction, D-penicillamine was reacted with phenylglyoxal. In the fashion described supra, phenylgyloxal, at final concentration of 10 mM, and D-penicillamine, at final concentration of 20 mM were reacted in 50 mM KH2PO4 buffer, pH 7.4, at room temperature. Reaction progress was monitored via HPLC analysis of reaction aliquots at 254 nm. After 40 minutes, more than 90% conversion of phenylgloxal peak into a single peak was observed. The product was obtained via preparative HPLC, was lyophilized, and analyzed by H-NMR spectroscopy.
Reactions were carried out in 10 mM phosphate buffer, pH 7.4, at 37° C., and were followed by HPLC analysis. Phenylglyoxal was used at a concentration of 50 mM, while D-penicillamine and aminoguanidine were used at concentrations of 250 mM, and 500 mM. The phenylglyoxal was used as a UV active, α-oxoaldehyde compound. Over the course of the reaction, aliquots were analyzed via HPLC. […] Initial reaction rates of phenylglyoxal and test compounds were monitored by following the disappearance of phenylglyoxal over time. […]
The measured, first order rate constant (k1st) was used to calculate the second order rate constant (k2nd), according to: […]
The calculated second order rate constants were determined at two reactant rates (5:1, and 10:1), and were in good agreement.

The subject of test [7] is histone H1 (carbonylation). The experiment in a line: histone H1 carbonylation by reducing sugars, and interference by compounds. It counts as biochemical. The following applies: compound 5 mM. Here is the method: Both protein cross-linking and protein carbonylation are well established indicia of protein glycation. See Schacter, et al., Free Radic Biol Med. 17:429-437 (1994), incorporated by reference. In brief, following the assays described infra, formation of protein cross-linking was measured on 12% SDS-PAGE, followed by Coomassie and silver staining. Cross-linking was detectable with a high degree of sensitivity, when the reaction between ADP-ribose and histone H1 was carried out at pH 9.0. […] In FIG. 8, the abbreviations “M,” “D”, and “O” represent “monomer,” “dimer” and “oligomer,” respectively. Silver staining is the preferred way of determining the cross linking. Protein carbonlyation was determined via Western blotting. Specifically, AGE-BSA, which had been prepared by incubating BSA with 1.66M glucose, at pH 7.4 for 90 days at 37° C., was recognized after being derivatized with 2.4 dinitrophenlyhydrazine (“DNP”), when tested with antibodies specific for protein bound, DNP epitopes.
A series of experiments were carried out to compare different reducing sugars as glycation agents. In addition to ADP-ribose, ADP-glucose, D-ribose and D-glucose were tested. Briefly, histone H1 was combined with 1 mM of each sugar, and the mixture was incubated at pH 7.4. After 7 days of incubation, reaction aliquots were analyzed on 12% SDS-PACE gels, with silver staining. Results are presented in FIGS. 19A and B. In each of these, lane 1 is a control, with no sugar added, while lanes 2-5 show results using D-glucose, D-ribose, ADP-glucose, and ADP-ribose, respectively. […] The amount of carbonylation caused by ADP-ribose (0.82 mole/mole histone H1), and D-ribose (0.06 mole/mole histone H1) correlated with immunostaining.
In order to determine if the carbonylation of histone H1 by ADP-ribose involved an oxidative pathway, several compounds, known to interfere with glycoxidation of proteins by D-glucose were tested to determine if they interfered with this action by ADP-ribose. The compounds tested included 5 mM DTPA under argon, 5 mM aminoguanidine, 5 mM N^α acetyl L-cysteine, 5 mM mannitol, and 100 units/ml catalase.

The mark [8] stands for this setting: increased concentration of D-penicillamine, methylglyoxal.
Where [9] appears, read: treated with 6004M methylglyoxal (so in the source).

On to `C[C@H](N)C(=O)O` [L-alanine], for which the “protection against methylglyoxal induced growth inhibition” value in test [1] (72 hours) and in test [2] (72 hours) was “no protective effect” throughout.

In the case of `NC(=O)C1=CN([C@@H]2O[C@H](COP(=O)(O)OP(=O)(O)OC[C@H]3O[C@@H](n4cnc5c(N)ncnc54)[C@H](O)[C@@H]3O)[C@@H](O)[C@H]2O)C=CC1` [NADH], the “AGE-fluorescence (day 5)” value in test [3] (compound 5 mM) was 31 (0.0). For the same compound, the “inhibition of histone H1 cross linking” value in test [4] is reported as “no inhibitory activity”.

Consider `CC(C)(S)C(N)C(=O)O` (racemic) [D,L-Penicillamine], for which the “inhibition of AGE-fluorescence, in words” value in test [3] is “the best of the compounds tested”. In test [3] (compound 1 mM), the “AGE-fluorescence (day 5)” value is on record as 13 (0.0), the “% inhibition” value is reported as 40% and the “AGE-fluorescence (day 0)” value was 1.1 (0.2). Besides, in test [3] (compound 5 mM), the “AGE-fluorescence (day 5)” value is recorded as 2.7 (0.0), the “% inhibition” value amounted to 92% and the “AGE-fluorescence (day 0)” value is on record as 1.1 (0.1). Besides, in test [3] (compound 10 mM), the “AGE-fluorescence (day 5)” value was 1.7 (0.0), the “% inhibition” value is on record as 97% and the “AGE-fluorescence (day 0)” value is 1.1 (0.1). Moreover, the “inhibition of histone H1 cross linking” value in test [4] was “more potent than aminoguanidine”.

Take `CC(C)(S)[C@@H](N)C(=O)O` [D-Penicillamine, reference compound]: the “inhibition of AGE-fluorescence, in words” value in test [3] is given as “the best of the compounds tested”. Moreover, the “AGE-fluorescence (day 5)” value in test [3] (compound 1 mM) is given as 11 (0.6); in test [3] (compound 5 mM), 2.9 (0.3); in test [3] (compound 10 mM) it was 1.4 (0.1). In addition, the “% inhibition” value in test [3] (compound 1 mM) amounted to 51%; in test [3] (compound 5 mM), 91%; in test [3] (compound 10 mM), 99%. In addition, the “AGE-fluorescence (day 0)” value in test [3] (compound 1 mM) was 1.2 (0.0); in test [3] (compound 5 mM), 1.1 (0.1); in test [3] (compound 10 mM), 1.1 (0.0). Also, the “protection against methylglyoxal induced growth inhibition” value in test [1] (72 hours) and in test [2] (72 hours) was “almost completely blocked methylglyoxal's toxicity” throughout. In addition, the “dose range cyto-protective effect” value in test [1] (setting [8]) and in test [2] (setting [8]) was “increased protection” throughout. Besides, the survival in test [1] (setting [9]) came out at 47%; in test [2] (setting [9]), 100%. Besides, the “protection against growth inhibition by glyoxal” value in test [2] (72 hours) is “appeared to protect keratinocytes against growth inhibition by glyoxal”. Also, the “inhibition of histone H1 cross linking” value in test [4] is given as “more potent than aminoguanidine”. In addition, the “efficiency of trapping phenylacetaldehyde relative to phenylglyoxal” value in test [5] is listed as “about 14 times less efficiently”. Moreover, the “conversion of phenylglyoxal peak into a single peak” value in test [6] (phenylglyoxal 10 mM, D-penicillamine 20 mM, 50 mM KH2PO4 pH 7.4, room temperature, after 40 minutes) was “more than 90%”. For the same compound, the “rate of phenylglyoxal trapping relative to aminoguanidine” value in test [6] (second order rate constants, 10 mM phosphate buffer pH 7.4, 37° C.) is on record as “more than 60 times faster”.

Turning to `CC(=O)C=O` [methylglyoxal], the “concentration completely inhibitory to growth” value amounted to 600 µM in test [1] (72 hours, no scavenger) and 600 µM in test [2] (72 hours, no scavenger).

As for `N=C(N)NN` [Aminoguanidine, aminoguanidine, reference compound], in test [3] (compound 1 mM), the “AGE-fluorescence (day 5)” value is 4.3 (0.2), the “% inhibition” value was 84% and the “AGE-fluorescence (day 0)” value is on record as 1.2 (0.1). In test [3] (compound 5 mM), the “AGE-fluorescence (day 5)” value is on record as 2.2 (0.0), the “% inhibition” value is on record as 96% and the “AGE-fluorescence (day 0)” value is recorded as 1.2 (0.1). In test [3] (compound 10 mM), the “AGE-fluorescence (day 5)” value is recorded as 1.8 (0.0), the “% inhibition” value worked out at 97% and the “AGE-fluorescence (day 0)” value is 1.3 (0.1). Moreover, the “suppression of AGE-fluorescence, primary screen outcome” value in test [3] (test compound 5 mM or limit of solubility, pH 7.4, 37° C.) is listed as “suppresses the glycation of histone H1 by ADP-ribose”. Besides, the “protection against methylglyoxal induced growth inhibition” value in test [1] (72 hours) is “rescued both cell lines from methylglyoxal induced growth inhibition in part”. Also, in test [2] (72 hours), the “protection against growth inhibition by glyoxal” value was “appeared to protect keratinocytes against growth inhibition by glyoxal” and the “protection against methylglyoxal induced growth inhibition” value is “rescued both cell lines from methylglyoxal induced growth inhibition in part”. For the same compound, the “interference with carbonylation of histone H1 by ADP-ribose” value in test [7] is on record as “slight effect”.
